For assay [1], the system named is GH189 (clpP1‐KD). Nature of the assay: microbe, parasite or virus in culture. In kind it is cell-based, M. bovis BCG. The settings on record: for MIC: Mycobacterium tuberculosis variant bovis BCG.
Assay [2] addresses Mtb ClpP1P2 (Mycobacterium tuberculosis, UniProt P9WPC3+P9WPC5). Put plainly: Mtb ClpP1P2 peptidase assay (library screening and IC50 determination). In kind it is biochemical.
The test system of assay [3] is M. tuberculosis H37Rv. Nature of the assay: MIC against Mtb H37Rv. In kind it is cell-based, Mycobacterium tuberculosis. Conditions: for MIC90: Mycobacterium tuberculosis, H37RV.
The mark [4] stands for this setting: read-out: MIC (µg/ml) when clpP1‐KD induced.
Where [5] appears, read: read-out: MIC (µg/ml) when no clpP1‐KD.
Where [6] appears, read: Figure S4, highest concentration 100 µM, read-out: concentration inhibiting 50% of the peptidase activity.
Setting [7] is: Figure 2B, neat/synthesized compounds, read-out: ClpP1P2 IC50.

Converted amounts (≈) assume the structure as drawn. Like-named read-outs stand apart in the source and are kept apart here. Bounds are passed on as bounds.

Sequence of Mtb ClpP1P2 (P9WPC3 16-214, one chain of several): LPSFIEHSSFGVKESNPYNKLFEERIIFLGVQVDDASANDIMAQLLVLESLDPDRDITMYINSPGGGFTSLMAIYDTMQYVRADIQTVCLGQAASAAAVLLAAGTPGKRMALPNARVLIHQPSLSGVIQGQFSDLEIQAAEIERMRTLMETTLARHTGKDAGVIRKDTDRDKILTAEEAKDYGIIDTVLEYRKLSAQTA

Turning to `CC[C@H]1OC(=O)[C@H](C)[C@@H](O[C@H]2C[C@@](C)(OC)[C@@H](O)[C@H](C)O2)[C@H](C)[C@@H](O[C@@H]2O[C@H](C)C[C@H](N(C)C)[C@H]2O)[C@](C)(O)C[C@@H](C)CN(C)[C@H](C)[C@@H](O)[C@]1(C)O` [Azithromycin], the MIC came out at 0.46 µg/mL (≈ 0.614 µM) in assay [1] (setting [4]) and 0.5 µg/mL (≈ 0.668 µM) in assay [1] (setting [5]).

Turning to `COc1nc2ccc(Br)cc2cc1[C@@H](c1ccccc1)[C@@](O)(CCN(C)C)c1cccc2ccccc12` [Bedaquiline], the MIC in assay [1] (setting [4]) and in assay [1] (setting [5]) was 0.06 µg/mL (≈ 0.108 µM) throughout.

With `CC[C@H]1OC(=O)[C@H](C)[C@@H](O[C@H]2C[C@@](C)(OC)[C@@H](O)[C@H](C)O2)[C@H](C)[C@@H](O[C@@H]2O[C@H](C)C[C@H](N(C)C)[C@H]2O)[C@](C)(OC)C[C@@H](C)C(=O)[C@H](C)[C@@H](O)[C@]1(C)O` [Clarithromycin], the MIC came to 0.1 µg/mL (≈ 0.134 µM) in assay [1] (setting [4]) and 0.11 µg/mL (≈ 0.147 µM) in assay [1] (setting [5]).

In the case of `N[C@@H]1CON=C1O` [D‐Cycloserine], the results for the MIC in assay [1] (setting [4]) and in assay [1] (setting [5]) were 9.3 µg/mL (≈ 91.1 µM) and 11 µg/mL (≈ 108 µM), respectively.

With `CC[C@@H](CO)NCCN[C@@H](CC)CO` [Ethambutol], the “downshift in the MIC against GH189 on clpP1‐KD” value (“downshift in the MIC” below) in assay [1] is on record as above 2 fold. In addition, the MIC in assay [1] (setting [4]) stood at 0.28 µg/mL (≈ 1.37 µM); in assay [1] (setting [5]), 0.62 µg/mL (≈ 3.03 µM).

Turning to `CCc1cc(C(N)=S)ccn1` [Ethionamide], in assay [2] (setting [6]), the IC50 is above 100 µM. Further, the “downshift in the MIC” value in assay [1] is above 2 fold. The values for the MIC in assay [1] (setting [4]) and in assay [1] (setting [5]) were 6.4 µg/mL (≈ 38.5 µM) and 46 µg/mL (≈ 277 µM), respectively.

As to `O=C(Oc1ccccc1)c1ccc(N2CCOCC2)c([N+](=O)[O-])c1` [GDI‐5756], the “inhibition of ClpP1P2 peptidase at 100 µM” value in assay [2] is given as “Neither analog could inhibit”. The IC50 in assay [2] (setting [7]) was above 100 µM. In assay [3], the “inhibition of Mtb whole cell at 100 µM” value is given as “Neither analog could inhibit”; the MIC90 (in general, an inhibitory concentration at the 90% level, which refers to growth in some studies and to a panel of isolates in others) was above 100 µM. Further, in assay [1], the “MIC shift against GH189 on ATc induction” value is recorded as “marginally shifted down”.

Take `O=C(Nc1ccc(Cl)cc1)c1ccc(N2CCOCC2)c([N+](=O)[O-])c1` [GDI‐5757]: the “inhibition of ClpP1P2 peptidase at 100 µM” value in assay [2] is on record as “Neither analog could inhibit”. Also, the IC50 in assay [2] (setting [7]) was above 100 µM. Further, in assay [3], the “inhibition of Mtb whole cell at 100 µM” value is given as “Neither analog could inhibit” and the MIC90 is above 100 µM. Moreover, in assay [1], the “MIC shift against GH189 on ATc induction” value is “remained inactive”.

In the case of `NNC(=O)c1ccncc1` [Isoniazid], the IC50 in assay [2] (setting [6]) is above 100 µM. The results for the MIC in assay [1] (setting [4]) and in assay [1] (setting [5]) were 0.057 µg/mL (≈ 0.416 µM) and 0.066 µg/mL (≈ 0.481 µM), respectively.

Take `CC(=O)NC[C@H]1CN(c2ccc(N3CCOCC3)c(F)c2)C(=O)O1` [Linezolid]: the figures for the MIC in assay [1] (setting [4]) and in assay [1] (setting [5]) were 0.97 µg/mL (≈ 2.88 µM) and 1 µg/mL (≈ 2.96 µM), respectively.

In the case of `C[C@@H](O)[C@H]1C(=O)N2C(C(=O)O)=C(S[C@@H]3CN[C@H](C(=O)N(C)C)C3)[C@H](C)[C@H]12` [Meropenem], in assay [2] (setting [6]), the IC50 is above 100 µM. The “downshift in the MIC” value in assay [1] is above 2 fold. Also, the MIC in assay [1] (setting [4]) was determined as 1.6 µg/mL (≈ 4.17 µM); in assay [1] (setting [5]) it was 5.3 µg/mL (≈ 13.8 µM).

As for `O=[N+]([O-])c1cn2c(n1)OC[C@@H](OCc1ccc(OC(F)(F)F)cc1)C2` [Pretomanid], the MIC in assay [1] (setting [4]) came out at 0.06 µg/mL (≈ 0.167 µM); in assay [1] (setting [5]), 0.12 µg/mL (≈ 0.334 µM).

For the compound `NC(=O)c1cnccn1` [Pyrazinamide, reference compound], in assay [2] (setting [6]), the IC50 is above 100 µM.

`CO[C@H]1/C=C/O[C@@]2(C)Oc3c(C)c(O)c4c(O)c(c(/C=N/N5CCN(C)CC5)c(O)c4c3C2=O)NC(=O)/C(C)=C\C=C\[C@H](C)[C@H](O)[C@@H](C)[C@@H](O)[C@@H](C)[C@H](OC(C)=O)[C@@H]1C` [Rifampicin]: the MIC in assay [1] (setting [4]) and in assay [1] (setting [5]) was 0.01 µg/mL (≈ 0.0122 µM) throughout.

In the case of `CO[C@H]1/C=C/O[C@@]2(C)Oc3c(C)c(O)c4c(O)c(cc(O)c4c3C2=O)NC(=O)/C(C)=C\C=C\[C@H](C)[C@H](O)[C@@H](C)[C@@H](O)[C@@H](C)[C@H](OC(C)=O)[C@@H]1C` [Rifamycin, reference compound], the IC50 in assay [2] (setting [6]) was above 100 µM.

`O=C(Oc1ccc(Cl)cc1)c1ccc(COC(=O)c2cnccn2)cc1` [SAM002946897]: the IC50 in assay [2] (library stocks, concentration–response, read-out: IC50) was found to be 3.23 µM.

Turning to `[H]/N=C(/N)N[C@H]1[C@H](O)[C@@H](O)[C@H](O[C@@H]2O[C@@H](C)[C@](O)(C=O)[C@H]2O[C@@H]2O[C@@H](CO)[C@H](O)[C@@H](O)[C@@H]2NC)[C@@H](N/C(N)=N\[H])[C@@H]1O` [Streptomycin], the values for the MIC in assay [1] (setting [4]) and in assay [1] (setting [5]) were 0.23 µg/mL (≈ 0.395 µM) and 0.24 µg/mL (≈ 0.413 µM), respectively.

For the compound Capreomycin, in assay [1], the “MIC (µg/ml) when clpP1‐KD induced” value worked out at 0.14 µg/mL and the “MIC (µg/ml) when no clpP1‐KD” value was found to be 0.25 µg/mL.

The record behind these values is PMC12042115 (mLife, 2025).
